Results reported in PubChem BioAssay AID1963960 (Molecular Pharmacology Branch, DTP, NCI, 2024).

Test system: MDA-MB-468 spheroids with HUVEC/MSC, viability
Test: Anticancer human tumor MDA-MB-468 cell line growth inhibition [PI3K];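 further: spheroids exposed to agents for seven days before readout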;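 on viability, T/C: 100% = DMSO vehicle control viability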
Details: for IC50: curve of first compound; for viability, T/C: stronger effect = lower value
Outline: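 Complex 3D spheroids (cancer cells + endothelial HUVEC + mesenchymal stem cells); drug pairs of targeted agent x inavolisib/alpelisib/duvelisib/copanlisib; half-log series from ~Cmax, max 10 microM if Cmax unknown; endpoint viability.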

[1] = second compound 0.0316 µM, first compound 0.0316 µM
[2] = second compound 0.0316 µM, first compound 0.1 µM
[3] = second compound 0.0316 µM, first compound 0.316 µM
[4] = second compound 0.0316 µM, first compound 1 µM
[5] = second compound 0.0316 µM, first compound 3.16 µM
[6] = second compound 0.0316 µM, first compound 10 µM
[7] = second compound 0.1 µM, first compound 0.0316 µM
[8] = second compound 0.1 µM, first compound 0.1 µM
[9] = second compound 0.1 µM, first compound 0.316 µM
[10] = second compound 0.1 µM, first compound 1 µM
[11] = second compound 0.1 µM, first compound 3.16 µM
[12] = second compound 0.1 µM, first compound 10 µM
[13] = second compound 0.316 µM, first compound 0.0316 µM
[14] = second compound 0.316 µM, first compound 0.1 µM
[15] = second compound 0.316 µM, first compound 0.316 µM
[16] = second compound 0.316 µM, first compound 1 µM
[17] = second compound 0.316 µM, first compound 3.16 µM
[18] = second compound 0.316 µM, first compound 10 µM
[19] = second compound 1 µM, first compound 0.0316 µM
[20] = second compound 1 µM, first compound 0.1 µM
[21] = second compound 1 µM, first compound 0.316 µM
[22] = second compound 1 µM, first compound 1 µM
[23] = second compound 1 µM, first compound 3.16 µM
[24] = second compound 1 µM, first compound 10 µM
[25] = second compound 3.16 µM, first compound 0.0316 µM
[26] = second compound 3.16 µM, first compound 0.1 µM
[27] = second compound 3.16 µM, first compound 0.316 µM
[28] = second compound 3.16 µM, first compound 1 µM
[29] = second compound 3.16 µM, first compound 3.16 µM
[30] = second compound 3.16 µM, first compound 10 µM
[31] = second compound 10 µM, first compound 0.0316 µM
[32] = second compound 10 µM, first compound 0.1 µM
[33] = second compound 10 µM, first compound 0.316 µM
[34] = second compound 10 µM, first compound 1 µM
[35] = second compound 10 µM, first compound 3.16 µM
[36] = second compound 10 µM, first compound 10 µM

Compound: C#Cc1c(F)ccc2cc(O)cc(-c3ncc4c(N5CC6CCC(C5)N6)nc(OCC56CCCN5CC(F)C6)nc4c3F)c12 (stereo not drawn) + Cc1nc(NC(=O)N2CCCC2C(N)=O)sc1-c1ccnc(C(C)(C)C(F)(F)F)c1
- IC50 (second compound 0.0316 µM): > 10 µM
- IC50 (second compound 0.1 µM): 7.36 µM
- IC50 (second compound 0.316 µM): 5.64 µM
- IC50 (second compound 1 µM): 3.09 µM
- IC50 (second compound 3.16 µM): 0.96 µM
- IC50 (second compound 10 µM): < 0.0316 µM
- viability, T/C [1]: 83.2%
- viability, T/C [2]: 84.4%
- viability, T/C [3]: 80.2%
- viability, T/C [4]: 106%
- viability, T/C [5]: 100%
- viability, T/C [6]: 52.3%
- viability, T/C [7]: 91.1%
- viability, T/C [8]: 89.1%
- viability, T/C [9]: 88.9%
- viability, T/C [10]: 101%
- viability, T/C [11]: 79.9%
- viability, T/C [12]: 39.2%
- viability, T/C [13]: 92.4%
- viability, T/C [14]: 85.6%
- viability, T/C [15]: 69.9%
- viability, T/C [16]: 80.9%
- viability, T/C [17]: 75.6%
- viability, T/C [18]: 24.7%
- viability, T/C [19]: 92.4%
- viability, T/C [20]: 81.8%
- viability, T/C [21]: 71.8%
- viability, T/C [22]: 83.3%
- viability, T/C [23]: 49.4%
- viability, T/C [24]: 15.8%
- viability, T/C [25]: 80.5%
- viability, T/C [26]: 69.3%
- viability, T/C [27]: 53.4%
- viability, T/C [28]: 53.4%
- viability, T/C [29]: 35.4%
- viability, T/C [30]: 3.3%
- viability, T/C [31]: 42.2%
- viability, T/C [32]: 26.6%
- viability, T/C [33]: 22.3%
- viability, T/C [34]: 18.9%
- viability, T/C [35]: 7.98%
- viability, T/C [36]: 0.65%

Compound: C=CC(=O)N1CCN(c2nc(=O)n(-c3c(C)ccnc3C(C)C)c3nc(-c4c(O)cccc4F)c(F)cc23)C(C)C1 (stereo not drawn) + Cc1nc(NC(=O)N2CCCC2C(N)=O)sc1-c1ccnc(C(C)(C)C(F)(F)F)c1
- IC50 (second compound 0.0316 µM): > 10 µM
- IC50 (second compound 0.1 µM): > 10 µM
- IC50 (second compound 0.316 µM): > 10 µM
- IC50 (second compound 1 µM): 6.13 µM
- IC50 (second compound 3.16 µM): 1.26 µM
- IC50 (second compound 10 µM): < 0.0316 µM
- viability, T/C [1]: 94.9%
- viability, T/C [2]: 92.7%
- viability, T/C [3]: 82.9%
- viability, T/C [4]: 131%
- viability, T/C [5]: 113%
- viability, T/C [6]: 67.8%
- viability, T/C [7]: 93.2%
- viability, T/C [8]: 100%
- viability, T/C [9]: 97.1%
- viability, T/C [10]: 122%
- viability, T/C [11]: 95.9%
- viability, T/C [12]: 63.6%
- viability, T/C [13]: 101%
- viability, T/C [14]: 100%
- viability, T/C [15]: 88.1%
- viability, T/C [16]: 91.6%
- viability, T/C [17]: 86.2%
- viability, T/C [18]: 57.5%
- viability, T/C [19]: 77.4%
- viability, T/C [20]: 80.9%
- viability, T/C [21]: 78.1%
- viability, T/C [22]: 88.3%
- viability, T/C [23]: 56.9%
- viability, T/C [24]: 44.9%
- viability, T/C [25]: 82.7%
- viability, T/C [26]: 63.7%
- viability, T/C [27]: 55.8%
- viability, T/C [28]: 60.8%
- viability, T/C [29]: 40.9%
- viability, T/C [30]: 37.2%
- viability, T/C [31]: 43.8%
- viability, T/C [32]: 31.2%
- viability, T/C [33]: 34.3%
- viability, T/C [34]: 25.6%
- viability, T/C [35]: 21.9%
- viability, T/C [36]: 15.8%

Compound: CC(Cn1ccc(-c2ccc(C#N)c(Cl)c2)n1)NC(=O)c1cc(C(C)O)[nH]n1 (stereo not drawn) + Cc1nc(NC(=O)N2CCCC2C(N)=O)sc1-c1ccnc(C(C)(C)C(F)(F)F)c1
- IC50 (second compound 0.0316 µM): > 10 µM
- IC50 (second compound 0.1 µM): > 10 µM
- IC50 (second compound 0.316 µM): > 10 µM
- IC50 (second compound 1 µM): > 10 µM
- IC50 (second compound 3.16 µM): > 10 µM
- IC50 (second compound 10 µM): < 0.0316 µM
- viability, T/C [1]: 82.4%
- viability, T/C [2]: 93%
- viability, T/C [3]: 88.3%
- viability, T/C [4]: 111%
- viability, T/C [5]: 72%
- viability, T/C [6]: 50.6%
- viability, T/C [7]: 89.4%
- viability, T/C [8]: 93.9%
- viability, T/C [9]: 79.9%
- viability, T/C [10]: 99%
- viability, T/C [11]: 64.6%
- viability, T/C [12]: 55.7%
- viability, T/C [13]: 88%
- viability, T/C [14]: 86.5%
- viability, T/C [15]: 80.6%
- viability, T/C [16]: 92.2%
- viability, T/C [17]: 61.5%
- viability, T/C [18]: 54%
- viability, T/C [19]: 86.3%
- viability, T/C [20]: 71.1%
- viability, T/C [21]: 64.1%
- viability, T/C [22]: 70.4%
- viability, T/C [23]: 61.2%
- viability, T/C [24]: 50.5%
- viability, T/C [25]: 74.4%
- viability, T/C [26]: 54.2%
- viability, T/C [27]: 64.4%
- viability, T/C [28]: 61.3%
- viability, T/C [29]: 53.4%
- viability, T/C [30]: 49.2%
- viability, T/C [31]: 33.4%
- viability, T/C [32]: 28.8%
- viability, T/C [33]: 28.4%
- viability, T/C [34]: 29.9%
- viability, T/C [35]: 28.3%
- viability, T/C [36]: 21.5%

Compound: CC1(C)CCC(Nc2ncc(C(F)(F)F)c(-c3c[nH]c4c(P(C)(C)=O)c(C#N)ccc34)n2)CN1 (stereo not drawn) + Cc1nc(NC(=O)N2CCCC2C(N)=O)sc1-c1ccnc(C(C)(C)C(F)(F)F)c1
- IC50 (second compound 0.0316 µM): < 0.0316 µM
- IC50 (second compound 0.1 µM): < 0.0316 µM
- IC50 (second compound 0.316 µM): < 0.0316 µM
- IC50 (second compound 1 µM): < 0.0316 µM
- IC50 (second compound 3.16 µM): < 0.0316 µM
- IC50 (second compound 10 µM): < 0.0316 µM
- viability, T/C [1]: 12.9%
- viability, T/C [2]: 13.4%
- viability, T/C [3]: 10.2%
- viability, T/C [4]: 12.3%
- viability, T/C [5]: 10.3%
- viability, T/C [6]: 1.66%
- viability, T/C [7]: 13.4%
- viability, T/C [8]: 13.6%
- viability, T/C [9]: 11%
- viability, T/C [10]: 11.7%
- viability, T/C [11]: 9.67%
- viability, T/C [12]: 1.49%
- viability, T/C [13]: 16.6%
- viability, T/C [14]: 10.6%
- viability, T/C [15]: 9.57%
- viability, T/C [16]: 11.6%
- viability, T/C [17]: 9.4%
- viability, T/C [18]: 1.34%
- viability, T/C [19]: 13.8%
- viability, T/C [20]: 10.9%
- viability, T/C [21]: 9.4%
- viability, T/C [22]: 10.7%
- viability, T/C [23]: 7.46%
- viability, T/C [24]: 1.27%
- viability, T/C [25]: 15.4%
- viability, T/C [26]: 10.6%
- viability, T/C [27]: 9.84%
- viability, T/C [28]: 9.67%
- viability, T/C [29]: 5.93%
- viability, T/C [30]: 1.32%
- viability, T/C [31]: 11%
- viability, T/C [32]: 7.92%
- viability, T/C [33]: 8.97%
- viability, T/C [34]: 6.88%
- viability, T/C [35]: 4.2%
- viability, T/C [36]: 0.98%
